pIC50: −log10 of the molar value.
Experiments:
[1] = test system: Caco-2 cells; assay: Intestinal permeability on Caco-2 cells; type: in vitro ADME, human; conditions: A to B, n = 1
Description: (§1) Caco-2 cells were obtained from the European Collection of Cell Cultures (ECACC) and used after a 21-day cell culture in 24-well Transwell plates. Test compounds and the references (vinblastine and propranolol) were prepared in protein-free Hanks’ balanced salt solution containing 25 mM HEPES (pH 7.4) at a concentration of 10 μM and added to either the apical or basolateral chambers of a Transwell plate assembly. Before the experiment, the integrity of the monolayer was checked by measuring the transepithelial resistance. Lucifer yellow (LY) was added to the donor buffer in all wells to assess the integrity of the cell layers by monitoring LY permeation. As LY cannot freely permeate lipophilic barriers, a high degree of LY transport indicates poor integrity of the cell layer. […] Concentrations of the compound in the samples were measured by LC–MS/MS. Apparent permeability (Papp) coefficients were calculated from the relationship: Papp = dQ/dt × 1/A × C0, where Papp is the apparent permeability coefficient (cm s^–1), dQ/dt is the amount of drug permeated per unit of time, A is the effective surface area of the artificial membrane exposed to the medium, and C0 is the initial drug concentration in the donor compartment. The efflux ratios, as an indication of active efflux from the apical cell surface, were calculated using the ratio of Papp(B → A)/Papp(A → B).

[2] = Intestinal permeability on Caco-2 cells; type: in vitro ADME, human; conditions: human, Caco-2, pH 7.4; A to B, n = 1; read-out: Caco-2 PA2B
Description: as §1

[3] = target: T1, CYP1A2 (Homo sapiens, UniProt P05177); assay: CYP reversible inhibition in HLM, CYP1A2; type: in vitro ADME; conditions: probe phenacetin
T1 construct: tissue BD Gentest; host or cells: human liver microsomes
T1 sequence (P05177 1-516): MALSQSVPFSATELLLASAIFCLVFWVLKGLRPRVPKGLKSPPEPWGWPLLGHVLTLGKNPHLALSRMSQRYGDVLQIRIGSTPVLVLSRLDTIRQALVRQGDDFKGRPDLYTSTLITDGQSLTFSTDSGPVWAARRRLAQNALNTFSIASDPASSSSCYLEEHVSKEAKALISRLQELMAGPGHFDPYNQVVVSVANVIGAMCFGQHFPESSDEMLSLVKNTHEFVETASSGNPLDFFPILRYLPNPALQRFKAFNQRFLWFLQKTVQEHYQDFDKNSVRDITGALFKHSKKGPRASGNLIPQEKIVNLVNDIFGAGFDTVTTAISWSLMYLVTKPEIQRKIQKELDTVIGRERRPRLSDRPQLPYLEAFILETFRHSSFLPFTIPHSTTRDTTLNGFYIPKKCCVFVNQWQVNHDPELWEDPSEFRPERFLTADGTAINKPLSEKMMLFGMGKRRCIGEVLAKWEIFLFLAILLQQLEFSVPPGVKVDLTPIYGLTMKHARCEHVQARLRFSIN
Description: (§2) Test compounds were diluted in methanol and then added to mixture containing 50 mM potassium phosphate buffer, pH 7.4, human liver microsomes (BD Gentest) and probe substrate. After prewarming for 5 min at 37 °C, the reaction was started by adding cofactor mix (7.65 mg/mL glucose-6-phosphate, 1.7 mg/mL NADP, 6 U/mL of glucose-6-phosphate dehydrogenase), resulting in seven final concentrations of test compounds in the range 0.14–100 μM (2% methanol). Isoform specific conditions regarding probe substrate and microsomal protein concentrations are available in Table 2. Final concentrations of cofactor mix components were as follows: 1.56 mg/mL glucose-6-phosphate, 0.34 mg/mL NADP, and 1.2 U/mL glucose-6-phosphate dehydrogenase. After incubation at 37 °C, the reaction was terminated with acetonitrile:methanol (2:1) solution with internal standard. Samples were centrifuged, and the supernatant fractions were analyzed by LC-MS/MS. The instrument responses (test compounds and internal standard peak areas) were referenced to those for solvent controls (assumed as 100%) in order to determine the percentage reduction in probe metabolism. Percent of control activity vs concentration plots were generated and fitted using GraphPad Prism software to generate IC50.

[4] = test system: MDCKII-MDR1 cells; assay: MDCK-MDR1 permeability assay; type: in vitro ADME, canine; conditions: A to B, n = 2
Description: (§3) MDCKII-MDR1 cells were seeded on Millicell-24 cell culture insert plate assemblies at a final concentration of 0.12 × 10^6 cells/well. Cells were cultured in a CO2 incubator for 3–4 days prior to experiment start with media replacement 24 h post seeding. On the day of the experiment, cells were preincubated for 45 min with Dulbecco’s Phosphate Buffer saline (D-PBS, pH7.4), containing 1% of DMSO. Compounds were prepared in D-PBS, pH 7.4 and added to either the apical or basolateral chambers of the Millicell cell culture insert plates assembly at a final concentration of 10 μM with a final DMSO concentration of 1%. Lucifer Yellow was added to all donor buffer solutions in order to assess integrity of the cell monolayers by monitoring Lucifer Yellow permeation. […] After brief mixing and centrifugation, the supernatant was analyzed by LC-MS/MS. The apparent permeability coefficient (Papp) was calculated according to the following equation: Papp = (dQ/dT)(1/C0)(1/A), where dQ/dT = permeability rate; C0 = initial concentration in donor compartment; A = surface area of the cell monolayer (0.7 cm^2). […] The efflux ratio is calculated as Papp from B to A divided by Papp from A to B. Passive permeability (×10^–6 cm/s) is calculated by the formula: Papp from A to B × efflux ratio + 1/2.

[5] = MDCK-MDR1 permeability assay; type: in vitro ADME, canine; conditions: dog, MDCK-MDR1, pH 7.4; A to B, n = 2; read-out: MDCK-MDR1 PA2B
Description: as §3

[6] = target: T2, CYP2C9 (Homo sapiens, UniProt P11712); assay: CYP reversible inhibition in HLM, CYP2C9; type: in vitro ADME; conditions: probe diclofenac; read-out: CYP inhibition in HLM IC50, CYP2C9
T2 construct: tissue BD Gentest; host or cells: human liver microsomes
T2 sequence (P11712 whole entry): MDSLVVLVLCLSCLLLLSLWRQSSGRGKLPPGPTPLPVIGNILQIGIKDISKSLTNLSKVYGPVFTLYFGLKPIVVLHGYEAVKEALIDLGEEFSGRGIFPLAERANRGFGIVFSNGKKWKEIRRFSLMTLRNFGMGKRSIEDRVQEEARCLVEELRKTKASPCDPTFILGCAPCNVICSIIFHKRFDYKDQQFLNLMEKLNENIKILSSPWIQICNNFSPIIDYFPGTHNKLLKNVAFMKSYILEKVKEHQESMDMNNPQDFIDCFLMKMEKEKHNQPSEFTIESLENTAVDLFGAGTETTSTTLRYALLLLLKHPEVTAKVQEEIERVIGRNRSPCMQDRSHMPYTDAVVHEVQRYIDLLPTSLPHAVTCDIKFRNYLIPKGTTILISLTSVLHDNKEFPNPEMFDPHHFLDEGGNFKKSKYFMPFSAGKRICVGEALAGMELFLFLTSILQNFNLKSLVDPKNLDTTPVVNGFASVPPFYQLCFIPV
Description: as §2

[7] = PK mouse; type: in vivo

Q: Which “Caco-2 PA2B” value [1] does the source give for `COC1CCN(C2CCN(c3cc(C(=O)NS(=O)(=O)N(C)C)nc4c3c(C3CCC3)nn4-c3ccc(F)cc3)CC2)CC1` [Compound 52, 3-Cyclobutyl-N-(N,N-dimethylsulfamoyl)-1-(4-fluorophenyl)-4-(4-methoxy-[1,4′-bipiperidin]-1′-yl)-1H-pyrazolo[3,4-b]pyridine-6-carboxamide] here?
A: The value was 24.5 cm × 10^–6 s^–1.

Q: What about the Papp A→B at 1 h, 10 μM [2] of the same compound?
A: The Papp A→B at 1 h, 10 μM was 24.5 ×10⁻⁶ cm/s.

Q: And the pIC50 [3]?
A: Its pIC50 is less than 4.00.

Q: What about the “MDCK-MDR1 PA2B” value [4] of the same compound?
A: The value was 5.45 cm × 10^–6 s^–1.

Q: What about the Papp A→B at 1 h, 10 μM [5] of the same compound?
A: Its Papp A→B at 1 h, 10 μM is 5.45 ×10⁻⁶ cm/s.

Q: And the pIC50 [6]?
A: The pIC50 was 5.85.

Q: What about the “F (%) mouse” value ([7]; 5 mg/kg po) of the same compound?
A: The value was 71.3%.

Q: What about the Vd ([7]; plasma, 1 mg/kg iv, read-out: Vss mouse) of the same compound?
A: Its Vd is 1.27 L/kg.

Q: What about the half-life ([7]; plasma, 1 mg/kg iv, read-out: t1/2 iv mouse (converted)) of the same compound?
A: Its half-life is 3.22 h.

Q: And the clearance ([7]; plasma, iv, 1 mg/kg, 1 mg/kg iv, read-out: Clp mouse (converted))?
A: Its clearance is 4.67 mL/min/kg.

Q: What about the Unbound clearance ([7]; plasma, iv, 1 mg/kg, 1 mg/kg iv, unbound clearance, read-out: Cl.u mouse (converted)) of the same compound?
A: Its Unbound clearance is 1110 mL/min/kg.

Reference: article PMC11017246, “Discovery of GLPG2737, a Potent Type 2 Corrector of CFTR for the Treatment of Cystic Fibrosis in Combination with a Potentiator and a Type 1 Co-corrector” (Journal of Medicinal Chemistry, 2024)
